Read-outs that look alike come from different tables or passages of the source.
What was measured:
[1] = format: physicochemical; settings: for Log P: method [a]: HPLC/LC-MS on reversed phase at pH 2.7, 0.1% formic acid in water and acetonitrile
[2] = system: Botrytis cinerea; assay: In vivo preventive test on Botrytis cinerea (grey mould); settings: 500 ppm; gherkin plants sprayed 24 hours before contamination; grading 4-5 days after contamination vs control plants
Method: Gherkin plants (“Vert petit de Paris” variety), sown in starter cups on a 50/50 peat soil-pozzolana substrate and grown at 24° C., are treated at the Z11 cotyledon stage by spraying with the active ingredient prepared as described above. Plants, used as controls, are treated with the mixture of acetone/tween/DMSO/water not containing the active material. After 24 hours, the plants are contaminated by spraying the cotyledons with an aqueous suspension of cryopreserved Botrytis cinerea spores (50 000 spores per ml). The spores are suspended in a nutrient solution composed of 10 g/L of PDB, 50 g/L of D-Fructose, 2 g/L of NH4NO3 and 1 g/L of KH2PO4. The contaminated gherkin plants are incubated at 17° C. and at 80% relative humidity. Grading (% of efficacy) is carried out 4-5 days after the contamination, in comparison with the control plants.

[3] = system: Septoria tritici; assay: In vivo preventive test on Septoria tritici (leaf spot on wheat); settings: 500 ppm; wheat plants sprayed 24 hours before contamination; grading 21 to 28 days after contamination vs control plants
Method: Wheat plants (“Scipion” variety), sown in starter cups on a 50/50 peat soil-pozzolana substrate and grown at 22° C. (12 h)/20° C. (12 h), are treated at the 1-leaf stage (10 cm height) by spraying with the active ingredient prepared as described above. Plants, used as controls, are treated with the mixture of acetone/tween/DMSO/water not containing the active material. After 24 hours, the plants are contaminated by spraying the leaves with an aqueous suspension of cryopreserved Septoria tritici spores (500 000 spores per ml). […] Grading (% of efficacy) is carried out 21 to 28 days after the contamination, in comparison with the control plants.

[4] = method [a]: HPLC/LC-MS on reversed phase at pH 2.7, 0.1% formic acid in water / acetonitrile, gradient 10% to 95% acetonitrile
[5] = HPLC on reversed phase columns, method [a]: pH 2.7, 0.1% formic acid in water / acetonitrile, linear gradient 10% to 95% acetonitrile
[6] = method [a]: HPLC/LC-MS on reversed phase at pH 2.7, 0.1% formic acid in water / acetonitrile, linear gradient 10% to 95% acetonitrile
[7] = linear gradient 10% to 95% acetonitrile

log P [1, 6] | Structure (SMILES) | % of efficacy (protection) [2] [%] | % of efficacy (protection) [3] [%] | also measured
 | CC1(C(=O)NCC(F)(F)F)CC(c2ccc3ncc(Br)cc3c2)=NO1 (stereo not shown) [compound 493] | 100 | 97 | log P [1, 4]: 2.84[a]
 | CCOCCCNC(=O)C1(C)CC(c2cc(Cl)c3ncc(Br)cc3c2)=NO1 (stereo not shown) [compound 542] | 100 | 83 | log P [1, 5]: 3.25[a]
 | CCC1(C(=O)NC2CCC2)CC(c2ccc3ncc(Br)cc3c2)=NO1 (stereo not shown) [compound 498] | 92 | 71 | log P [1, 4]: 3.31[a]
3.71^[a] | C#Cc1cnc2ccc(C3=NOC(C)(C(=O)NCc4cc(Cl)cc(Cl)c4)C3)cc2c1 (stereo not shown) [compound 193] | 74 |  | 
 | CCCOc1cnc2ccc(C3=NOC(C)(C(=O)NCc4cn(CC)nc4C)C3)cc2c1 (stereo not shown) [compound 418] | 79 | 83 | log P [1, 4]: 2.46[a]
2.2^[a] | CC1(C(=O)NCC2CCOC2)CC(c2ccc3ncc(Br)cc3c2)=NO1 (stereo not shown) [compound 127] | 80 |  | 
2.09^[a] | CCn1cc(CNC(=O)C2(C)CC(c3ccc4ncc(SC)cc4c3)=NO2)c(C)n1 (stereo not shown) [compound 147] | 88 |  | 
1.98^[a] | C#Cc1cnc2ccc(C3=NOC(C)(C(=O)NCc4cnc(C)cn4)C3)cc2c1 (stereo not shown) [compound 167] | 100 | 100 | 
 | CCOCCCNC(=O)C1(OC)CC(c2cc(C)c3ncc(Br)cc3c2)=NO1 (stereo not shown) [compound 597] | 100 | 100 | log P [1, 5]: 3.39[a]
 | C#Cc1cnc2ccc(C3=NOC(C(=O)NCCCOCC)(C(F)F)C3)cc2c1 (stereo not shown) [Compound No. 615] | 95 | 79 | chromatographic logP ([1]; pH 2.7): 2.73
 | C#Cc1cnc2ccc(C3=NOC(C)(C(=O)NC(C)(C#N)C4CC4)C3)cc2c1 (stereo not shown) [compound 523] | 73 | 97 | log P [1, 5]: 2.75[a]
2.45^[a] | CC1(C(=O)NCC2CCCO2)CC(c2ccc3ncc(Br)cc3c2)=NO1 (stereo not shown) [compound 130] | 89 |  | 
3.11^[a] | CC1(C(=O)NCc2cnn(-c3ccccc3)c2)CC(c2ccc3ncc(Br)cc3c2)=NO1 (stereo not shown) [compound 202] | 87 |  | 
 | C=C(C)C1(C(=O)NC(C)C)CC(c2ccc3ncc(Br)cc3c2)=NO1 (stereo not shown) [compound 517] | 80 |  | log P [1, 5]: 3.41[a]
2.43^[a] | CCOc1cnc2ccc(C3=NOC(C)(C(=O)NC(C)C)C3)cc2c1 (stereo not shown) [compound 78] | 74 | 97 | 
2.75^[a] | CCC1(C(=O)NC2CC2)CC(c2ccc3ncc(Br)cc3c2)=NO1 (stereo not shown) [compound 69] | 99 | 97 | 
 | CCC(C)NC(=O)C1(C)CC(c2cc3cc(Br)cnc3c(F)c2F)=NO1 (stereo not shown) [compound 22] | 93 | 83 | Log P [1, 7]: 3.31^[a]
2.73^[a] | CC1(CNC(=O)C2(C)CC(c3ccc4ncc(Br)cc4c3)=NO2)CCCO1 (stereo not shown) [compound 131] | 92 | 83 | 
 | C#Cc1cnc2ccc(C3=NOC(C)(C(=O)NC(C)c4cccc5ccccc45)C3)cc2c1 (stereo not shown) [compound 339] |  | 78 | log P [1, 5]: 3.85[a]
 | C#Cc1cnc2ccc(C3=NOC(C)(C(=O)NC(CC)c4cn(CC)nc4C)C3)cc2c1 (stereo not shown) [compound 347] |  | 100 | log P [1, 5]: 2.52[a]
 | C#Cc1cnc2ccc(C3=NOC(C)(C(=O)NCC(OC)OC)C3)cc2c1 (racemic) [compound 366] |  | 100 | log P [1, 4]: 2.13[a]
 | Cc1cc(NC(=O)C2(C)CC(c3cc4cc(Br)cnc4c(F)c3F)=NO2)n(C)n1 (stereo not shown) [compound 18] |  | 93 | Log P [1, 7]: 2.6^[a]
 | CCn1cc(CNC(=O)C2(C3CC3)CC(c3ccc4ncc(Br)cc4c3)=NO2)c(C)n1 (stereo not shown) [compound 268] | 93 |  | log P [1, 5]: 2.73[a]
 | CC(NC(=O)C1(C)CC(c2ccc3ncc(Br)cc3c2)=NO1)c1ccccc1Cl (stereo not shown) [compound 294] |  | 70 | log P [1, 5]: 3.85[a]
3.08^[a] | C#Cc1cc2cc(C3=NOC(C)(C(=O)NC(C)C)C3)ccc2nc1Cl (stereo not shown) [compound 134] |  | 71 | 

log P [1, 6] | Structure (SMILES) | % of efficacy (protection) [2] [%] | % of efficacy (protection) [3] [%] | also measured
 | C#Cc1cnc2ccc(C3=NOC(C)(C(=O)NC(C)c4ccccc4)C3)cc2c1 (stereo not shown) [compound 350] |  | 100 | log P [1, 5]: 3.06[a]
 | CCOCCCNC(=O)C1(C)CC(c2cc3cc(Br)cnc3c(F)c2F)=NO1 (stereo not shown) [compound 14] | 100 |  | Log P [1, 7]: 2.98^[a]
 | C=Cc1cnc2ccc(C3=NOC(C)(C(=O)NC(C)C)C3)cc2c1 (stereo not shown) [compound 304] |  | 100 | log P [1, 5]: 2.20[a]
2.56^[a] | CCn1cc(CNC(=O)C2(CCl)CC(c3ccc4ncc(Br)cc4c3)=NO2)c(C)n1 (stereo not shown) [compound 138] |  | 93 | 
2.44^[a] | C#Cc1cnc2ccc(C3=NOC(C)(C(=O)NCc4ccc(Cl)nc4)C3)cc2c1 (stereo not shown) [compound 160] |  | 71 | 
 | CCOC1(C(=O)NCc2cn(CC)nc2C)CC(c2ccc3ncc(Br)cc3c2)=NO1 (stereo not shown) [compound 416] |  | 100 | log P [1, 4]: 1.95[a]
 | CC1(C(=O)NC2CCCC2)CC(c2ccc3ncc(Br)cc3c2)=NO1 (racemic) [compound 390] |  | 98 | log P [1, 4]: 3.29[a]
 | CCn1cc(CNC(=O)C2(C)CC(c3ccc4nc(OC)c(I)cc4c3)=NO2)c(C)n1 (stereo not shown) [compound 472] |  | 75 | log P [1, 4]: 3.11[a]
 | C#Cc1cnc2ccc(C3=NOC(C)(C(=O)NC(C)c4ccncc4)C3)cc2c1 (stereo not shown) [compound 335] |  | 78 | log P [1, 5]: 1.28[a]
2.47^[a] | CCn1cc(CNC(=O)C2(C)CC(c3cc4cc(Br)cnc4c(F)c3OC)=NO2)c(C)n1 (stereo not shown) [compound 29] |  | 100 | 
2.82^[a] | C#Cc1cnc2ccc(C3=NOC(C)(C(=O)NCc4ccc(-c5csnn5)cc4)C3)cc2c1 (stereo not shown) [compound 86] |  | 75 | 
 | C#CCCNC(=O)C1(C)CC(c2ccc3ncc(Br)cc3c2)=NO1 (stereo not shown) [compound 353] |  | 94 | log P [1, 5]: 2.52[a]
 | CCONC(=O)C1(C)CC(c2ccc3ncc(Br)cc3c2)=NO1 (racemic) [compound 389] |  | 100 | log P [1, 4]: 2.17[a]
3.21^[a] | CCC(C)NC(=O)C1(C)CC(c2cc3cc(Br)cnc3c(OC)c2OC)=NO1 (stereo not shown) [compound 28] |  | 100 | 
2.73^[a] | CC1(C(=O)NCc2ccc(Cl)nc2)CC(c2ccc3ncc(Br)cc3c2)=NO1 (stereo not shown) [compound 104] |  | 92 | 
 | CC(NC(=O)C1(C)CC(c2ccc3ncc(Br)cc3c2)=NO1)c1ccccc1 (stereo not shown) [compound 292] |  | 96 | log P [1, 5]: 3.46[a]
2.94^[a] | CCn1cc(CNC(=O)C2(C(C)C)CC(c3ccc4ncc(Br)cc4c3)=NO2)c(C)n1 (stereo not shown) [compound 61] |  | 80 | 
3.09^[a] | C#Cc1cc2cc(C3=NOC(C)(C(=O)NC(C)C)C3)ccc2nc1OC (stereo not shown) [compound 133] |  | 100 | 
 | CC(C)NC(=O)C12CC1C(c1ccc3ncc(Br)cc3c1)=NO2 (racemic) [compound 397] |  | 75 | log P [1, 4]: 2.82[a]
 | C#Cc1cnc2ccc(C3=NOC(OC)(C(=O)NCC(O)CO)C3)cc2c1 (stereo not shown) [compound 473] |  | 75 | log P [1, 4]: 1.44[a]
2.88^[a] | C#Cc1cnc2ccc(C3=NOC(C)(C(=O)NCc4ccc(C)n4C)C3)cc2c1 (stereo not shown) [compound 153] |  | 71 | 
 | C#Cc1cnc2ccc(C3=NOC(C)(C(=O)NC(C)(C)C)C3)cc2c1 (stereo not shown) [compound 322] |  | 98 | log P [1, 5]: 3.00[a]
 | COC1(C(=S)NC(C)C)CC(c2ccc3ncc(Br)cc3c2)=NO1 (stereo not shown) [compound 410] |  | 100 | log P [1, 4]: 3.69[a]
 | CCOc1cnc2ccc(C3=NOC(C)(C(=O)NCc4cn(CC)nc4C)C3)cc2c1 (stereo not shown) [compound 417] |  | 100 | log P [1, 4]: 2.09[a]
2.62^[a] | CCn1cc(CNC(=O)C2(CBr)CC(c3ccc4ncc(Br)cc4c3)=NO2)c(C)n1 (stereo not shown) [compound 137] |  | 93 | 

Reference: patent US9510598B2, “Nitrogen-containing heterocyclic compounds for plant disease control” (BAYER CROPSCIENCE AG, priority 2012, dated 2016)
